In patent US12642271B2, “Active compound combinations comprising a (thio)carboxamide derivative and a fungicidal compound” (Bayer CropScience Aktiengesellschaft, priority 2011, dated 2026):
Values joined by “and” are separate entries in the source; they are usually repeats but may differ in a detail not shown here. Equal entries are not always repeated. Where two headings read alike, the source gives them in different places.

Experiments:
Fusarium graminearum = format: in vivo
Septoria tritici = assay: Septoria tritici-test (wheat)/preventive; format: in vivo; details: Zymoseptoria tritici, 504 h, preventive, evaluated 21 days after inoculation, read-out: Efficacy in % found; for pest or weed control at 10 ppm: application rate 10 ppm a.i.
Leptosphaeria nodorum = Leptosphaeria nodorum test (wheat)/preventive; format: in vivo; details: for pest or weed control at 10 ppm / pest or weed control at 40 ppm: Parastagonospora nodorum, 192 h, read-out: Efficacy in % found; for pest or weed control at 40 ppm: application rate 40 ppm
Sphaerotheca fuliginea = assay: Sphaerotheca test (cucumbers)/preventive; format: in vivo; details: Podosphaera fuliginea, 168 h, read-out: Efficacy in % found; for pest or weed control at 0.5 ppm: 0.5 ppm a.i.; for pest or weed control at 0.25 ppm: 0.25 ppm a.i.
[1] = tested on: Fusarium nivale (var. majus); assay: Fusarium nivale (var. majus)-test (wheat)/preventive; details: Microdochium nivale, in Triticum aestivum, 120 h; for pest or weed control at 10 ppm: 10 ppm a.i.; for pest or weed control at 40 ppm: 40 ppm a.i.
Description: After the spray coating has been dried, the plants are slightly injured by using a sandblast and afterwards they are sprayed with a conidia suspension of Fusarium nivale (var. majus).
The plants are placed in the greenhouse under a translucent incubation cabinet at a temperature of approximately 10° C. and a relative atmospheric humidity of approximately 100%.
The test is evaluated 5 days after the inoculation.

Pyrenophora teres = assay: Pyrenophora teres-test (barley)/preventive; format: in vivo; details: application rate 10 ppm a.i., preventive, evaluated 8 days after inoculation
Phytophthora infestans = assay: whole plant or invertebrate; format: in vivo; details: Phytophthora infestans, 72 h, read-out: Efficacy in % found
[2] = tested on: Blumeria graminis f.sp. hordei; assay: Blumeria test (barley)/preventive; format: in vivo; details: Blumeria graminis, 168 h, read-out: Efficacy in % found; for pest or weed control at 10 ppm: 10 ppm a.i.
Puccinia triticina = assay: Puccinia triticina-test (wheat)/preventive; format: in vivo; details: preventive, evaluated 8 days after inoculation; for pest or weed control at 40 ppm / pest or weed control at 10 ppm: Puccinia triticina, 192 h, read-out: Efficacy in % found; for pest or weed control at 40 ppm: application rate 40 ppm a.i.
Alternaria solani = assay: Alternaria test (tomatoes)/preventive; format: in vivo; details: Alternaria solani, 72 h, read-out: Efficacy in % found
Venturia inaequalis = assay: Venturia test (apples)/preventive; details: for pest or weed control at 0.5 ppm: 0.5 ppm a.i.
Description: After the spray coating has dried on, the plants are inoculated with an aqueous conidia suspension of the causal agent of apple scab (Venturia inaequalis) and then remain for 1 day in an incubation cabinet at approximately 20° C. and a relative atmospheric humidity of 100%.
The plants are then placed in a greenhouse at approximately 21° C. and a relative atmospheric humidity of approximately 90%.
The test is evaluated 10 days after the inoculation.

Botrytis cinerea = assay: Botrytis test (beans)/preventive
Description: After the spray coating has dried on, 2 small pieces of agar covered with growth of Botrytis cinerea are placed on each leaf. The inoculated plants are placed in a darkened chamber at 20° C. and a relative atmospheric humidity of 100%. 2 days after the inoculation, the size of the lesions on the leaves is evaluated.

[3] = application rate 10 ppm, wheat, preventive, evaluated 8 days after inoculation
[4] = wheat, preventive, evaluated 8 days after inoculation
[5] = Venturia inaequalis, 240 h, read-out: Efficacy in % found, Table 2b, 0.25 ppm a.i.
[6] = read-out: Efficacy in % found, Table 8e

| Structure (SMILES) | Efficacy in % found (Fusarium graminearum; Table 7a, 10 ppm a.i.) [%] | Efficacy in % found (Fusarium graminearum; Table 7b, 10 ppm a.i.) [%] | pest or weed control at 10 ppm (Septoria tritici) [%] | pest or weed control at 10 ppm (Leptosphaeria nodorum; [3]) [%] | pest or weed control at 40 ppm (Leptosphaeria nodorum; [4]) [%] | Efficacy in % found (Pyrenophora teres) | pest or weed control at 0.25 ppm (Phytophthora infestans) [%] | pest or weed control at 0.5 ppm (Phytophthora infestans) [%] | pest or weed control at 100 ppm (Phytophthora infestans) [%] | pest or weed control at 40 ppm (Puccinia triticina) [%] | pest or weed control at 0.5 ppm (Alternaria solani; Table 3b) [%] | pest or weed control at 0.25 ppm (Venturia inaequalis; [5]) [%] | Efficacy in % found (Fusarium graminearum; Table 7b, 40 ppm a.i.) [%] | pest or weed control at 10 ppm (Puccinia triticina; application rate 10 ppm a.i.) [%] | also measured |
| --- | --- | --- | --- | --- | --- | --- | --- | --- | --- | --- | --- | --- | --- | --- | --- |
| CON=C(C(=O)OC)c1ccccc1CON=C(C)c1cccc(C(F)(F)F)c1 [B3.22, trifloxystrobin] | 0 | 25 | 13 | 40 | 57 | – | – | – | – | – | – | – | – | – | pest or weed control at 1 ppm (Sphaerotheca fuliginea; Table 4c, 1 ppm a.i.): 21% |
| Cn1nc(C(F)F)c(C(=O)N(Cc2c(Cl)cccc2C(F)(F)F)C2CC2)c1F [A17, N-[2-chloro-6-(trifluoromethyl)benzyl]-N-cyclopropyl-3-(difluoromethyl)-5-fluoro-1-methyl-1H-pyrazole-4-carboxamide] | 50 | – | – | 33 | 67 | 86% and 89% | 0 | 0 | 30 | 67 | 71 | 8 | – | – | pest or weed control at 10 ppm ([1]; read-out: Efficacy in % found, Table 8d): 43%; pest or weed control at 10 ppm ([2]; Table 6a): 95%; pest or weed control at 0.5 ppm (Alternaria solani; Table 3c): 32%; pest or weed control at 10 ppm (Leptosphaeria nodorum; Table 9e, 10 ppm a.i.): 29%; pest or weed control at 0.5 ppm (Sphaerotheca fuliginea; Table 4a): 74%; pest or weed control at 0.25 ppm (Sphaerotheca fuliginea; Table 4b): 71% |
| CC(C)C1C2CCC1c1c(NC(=O)c3cn(C)nc3C(F)F)cccc12 (stereo not drawn) [B2.11, isopyrazam (syn + anti)] | – | – | – | – | – | 0% | – | – | – | – | – | – | 0 | – | Efficacy in % found (Puccinia triticina; application rate 10 ppm a.i.): 33%; Efficacy in % found (Leptosphaeria nodorum; Table 9b, 10 ppm a.i.): 0%; Efficacy in % found (Venturia inaequalis; Table 2d, 0.25 ppm a.i.): 88% |
| Cn1nc(C(F)F)c(C(=O)N(Cc2cc(Cl)ccc2C(F)(F)F)C2CC2)c1F [A15, N-[5-chloro-2-(trifluoromethyl)benzyl]-N-cyclopropyl-3-(difluoromethyl)-5-fluoro-1-methyl-1H-pyrazole-4-carboxamide] | – | 0 | 57 | – | – | 67% | 0 | 0 | 25 | 89 | 63 | 0 | 0 | 44 | pest or weed control at 10 ppm ([1]; read-out: Efficacy in % found, Table 8c): 63%; pest or weed control at 10 ppm ([2]; Table 6b): 13%; pest or weed control at 40 ppm ([2]; Table 6b, 40 ppm a.i.): 70%; pest or weed control at 40 ppm ([2]; Table 6c, 40 ppm): 75%; pest or weed control at 0.25 ppm (Alternaria solani; Table 3b, 0.25 ppm): 59%; Efficacy in % found (Botrytis cinerea; Table 5a, 2.5 ppm a.i.): 8%; pest or weed control at 0.5 ppm (Venturia inaequalis; Venturia inaequalis, 240 h, read-out: Efficacy in % found, Table 2a): 0%; pest or weed control at 0.25 ppm (Sphaerotheca fuliginea; Table 4c): 29% |
| CC(C)c1ccc(Cl)cc1CN(C(=O)c1c(C(F)F)nn(C)c1F)C1CC1 [A5, N-(5-chloro-2-isopropylbenzyl)-N-cyclopropyl-3-(difluoromethyl)-5-fluoro-1-methyl-1H-pyrazole-4-carboxamide] | – | – | – | 20 | 60 | – | – | 0 | – | 94 | – | – | – | 44 | pest or weed control at 40 ppm (Septoria tritici; application rate 40 ppm a.i.): 93%; pest or weed control at 10 ppm [1, 6]: 0%; pest or weed control at 40 ppm [1, 6]: 0%; pest or weed control at 40 ppm ([1]; read-out: Efficacy in % found, Table 8f): 38%; pest or weed control at 40 ppm ([2]; Table 6f, 40 ppm a.i.): 25%; pest or weed control at 0.5 ppm (Alternaria solani; Table 3e): 6%; pest or weed control at 0.5 ppm (Alternaria solani; Table 3d): 0%; Efficacy in % found (Botrytis cinerea; Table 5b, 0.5 ppm a.i.): 16%; Efficacy in % found (Botrytis cinerea; Table 5b, 2 ppm a.i.): 72%; pest or weed control at 0.5 ppm (Venturia inaequalis; Venturia inaequalis, 240 h, read-out: Efficacy in % found, Table 2e): 15%; pest or weed control at 2 ppm (Venturia inaequalis; Venturia inaequalis, 240 h, read-out: Efficacy in % found, Table 2e, 2 ppm a.i.): 57%; pest or weed control at 0.25 ppm (Venturia inaequalis; Venturia inaequalis, 240 h, read-out: Efficacy in % found, Table 2d, 0.25 ppm a.i.): 0%; pest or weed control at 0.5 ppm (Venturia inaequalis; Venturia inaequalis, 240 h, read-out: Efficacy in % found, Table 2d): 0%; pest or weed control at 0.5 ppm (Sphaerotheca fuliginea; Table 4d): 0% |
